Drawing on patent US5783703A, “Sulfur-containing compounds method for their use and prodction” (Lederle (Japan), Ltd., priority 1993, dated 1998), this text covers MIC for one compound.

What all share (test): Antibacterial activity, agar plate dilution method (MIC), Experimental Example 2
What all share (assay type): cell-based

The test system of one assay is S. aureus MS353. As to conditions: Staphylococcus aureus, MH agar, 37° C., 18 hours. The method, then: (§1) There was measured, by the following method, the antibacterial activity of the compound (16) which had been produced in Example 14 with use of the compound (I) of the present invention as a synthesis intermediate.
(§2) There was employed the agar plate dilution method in accordance with the standard method of the Japanese Chemotherapy Society [Chemotherapy, vol. 29, 76-79 (1981)]. Concretely, a Mueller-Hinton (MH) agar liquid medium containing the test microorganism was cultured overnight at 37° C., and the resultant culture medium was diluted with a buffered saline gelatin (BSG) solution so that the concentration of the test microorganism might be about […]. Then, with use of a microplanter, this diluted solution was inoculated each about 5 μl on MH agar media containing the test compounds. Thus, the minimum concentration of the test compound in which no growth of the test microorganism was observed after the incubation at 37° C. for 18 hours was regarded as Minimum Inhibitory Concentration (MIC). Incidentally, all of the test organisms used here were standard strains.

Another assay has as its system P. vulgaris HX-19. As to conditions: Proteus vulgaris, HX19, MH agar, 37° C., 18 hours. Here is the method:
as §1, §2

For a further assay, the system named is S. schottmuelleri 8006. As to conditions: MH agar, 37° C., 18 hours. The method, then:
as §1, §2

Another assay has as its system S. enteritidis G14. As to conditions: Salmonella enterica, MH agar, 37° C., 18 hours. The method, then: as §1, §2
The next assay relates to E. cloacae 963. As to conditions: Enterobacter cloacae, MH agar, 37° C., 18 hours. The method, then: as §1, §2
The next assay relates to E. coli NIHJ JC-2. As to conditions: Escherichia coli, NIHJJC2, MH agar, 37° C., 18 hours. The method, then:
as §1, §2

The next assay deals with B. subtilis ATCC 6633. As to conditions: Bacillus subtilis, ATCC6633, MH agar, 37° C., 18 hours. The method, then:
as §1, §2

Another assay relates to S. typhimurium 11D971. As to conditions: Salmonella enterica, MH agar, 37° C., 18 hours. The method, then: as §1, §2
Another assay concerns E. coli K-12 C600. As to conditions: Escherichia coli, K12C600, MH agar, 37° C., 18 hours. The method, then: as §1, §2
A further assay concerns E. aerogenes ATCC 13048. As to conditions: Klebsiella aerogenes, ATCC13048, MH agar, 37° C., 18 hours. The method, then:
as §1, §2

Another assay deals with K. pneumoniae PCI-602. As to conditions: Klebsiella pneumoniae, PCI602, MH agar, 37° C., 18 hours. The method, then: as §1, §2
For another assay, the system named is P. vulgaris OX-19. As to conditions: Proteus vulgaris, OX19, MH agar, 37° C., 18 hours. Here is the method:
as §1, §2

A further assay deals with P. rettgeri IFO 3850. As to conditions: Providencia rettgeri, IFO3850, MH agar, 37° C., 18 hours. The method, then: as §1, §2
A further assay has as its system P. mirabilis IFO 3849. As to conditions: Proteus mirabilis, IFO3849, MH agar, 37° C., 18 hours. The method, then:
as §1, §2

The test system of a further assay is S. marcescens IAM 1184. As to conditions: Serratia marcescens, IAM1184, MH agar, 37° C., 18 hours. Here is the method: as §1, §2
The test system of a further assay is S. pyogenes Cook. As to conditions: Streptococcus pyogenes, MH agar, 37° C., 18 hours. Here is the method:
as §1, §2

Another assay relates to S. aureus FDA209P JC-1. As to conditions: Staphylococcus aureus, MH agar, 37° C., 18 hours. The method, then: as §1, §2
A further assay concerns M. morganii IFO 3848. As to conditions: Morganella morganii, IFO3848, MH agar, 37° C., 18 hours. Here is the method:
as §1, §2

The test system of the next assay is S. paratyphi 1015. As to conditions: Salmonella enterica, 18 h. The method, then:
as §1, §2

For another assay, the system named is S. typhi 901. As to conditions: Salmonella enterica, 18 h. The method, then:
as §1, §2

The test system of another assay is M. luteus ATCC 9341. As to conditions: Micrococcus luteus, ATCC9341, MH agar, 37° C., 18 hours. Here is the method: as §1, §2
In the next assay the test system is S. aureus Terajima. As to conditions: Staphylococcus aureus, MH agar, 37° C., 18 hours. Here is the method:
as §1, §2

The structures appear in SMILES notation. In brackets after ≈: the same amount, converted by molar mass.

In the case of `C[C@@H](O)[C@H]1C(=O)N2C(C(=O)O)=C(SC3CN(C4=NCCS4)C3)[C@H](C)[C@H]12` [compound (16), (1R, 5S, 6S)-2-[1-(1,3-thiazolin-2-yl)azetidin-3-yl]thio-6-[(R)-1-hydroxyethyl]-1-methylcarbapen-2-em-3-carboxylate], the MIC was ≤ 0.006 µg/mL against S. aureus MS353; 0.1 µg/mL (≈ 0.261 µM) against P. vulgaris HX-19; 0.025 µg/mL (≈ 0.0652 µM) against S. schottmuelleri 8006; 0.39 µg/mL (≈ 1.02 µM) with S. enteritidis G14; 0.05 µg/mL (≈ 0.13 µM) against E. cloacae 963; 0.013 µg/mL (≈ 0.0339 µM) in the assay on E. coli NIHJ JC-2. The MIC against B. subtilis ATCC 6633 came to 0.025 µg/mL (≈ 0.0652 µM); against S. typhimurium 11D971, 0.025 µg/mL (≈ 0.0652 µM); with E. coli K-12 C600 it was 0.1 µg/mL (≈ 0.261 µM); in the assay with E. aerogenes ATCC 13048, 0.1 µg/mL (≈ 0.261 µM); against K. pneumoniae PCI-602 it was 0.013 µg/mL (≈ 0.0339 µM); in the assay with P. vulgaris OX-19, 0.1 µg/mL (≈ 0.261 µM). Besides, the MIC in the assay with P. rettgeri IFO 3850 was 0.39 µg/mL (≈ 1.02 µM); against P. mirabilis IFO 3849, 0.39 µg/mL (≈ 1.02 µM); with S. marcescens IAM 1184 it was 0.05 µg/mL (≈ 0.13 µM); against S. pyogenes Cook it was ≤ 0.006 µg/mL; against S. aureus FDA209P JC-1, 0.013 µg/mL (≈ 0.0339 µM); against M. morganii IFO 3848, 0.39 µg/mL (≈ 1.02 µM). Besides, the MIC against S. paratyphi 1015 was 0.05 µg/mL (≈ 0.13 µM); in the assay with S. typhi 901 it was ≤ 0.006 µg/mL; in the assay on M. luteus ATCC 9341, 0.2 µg/mL (≈ 0.522 µM); in the assay with S. aureus Terajima, ≤ 0.006 µg/mL.

For orientation: MIC means the lowest concentration that inhibits growth of the organism. Low readings indicate greater potency, high ones weaker potency.
